# From US9795140B2, “Molecules having pesticidal utility, and intermediates, compositions, and processes, related thereto” (priority 2015, dated 2017)
# Columns and labels:
# Assay type in all cases: in vivo
# [1] = tested on: Beet Armyworm (Spodoptera exigua, LAPHEG); assay: Bioassay on Beet Armyworm (BAW), 128-well diet tray assay; conditions: 168 h, 50 μg/cm^2 on artificial diet, second instar larvae, 25° C., five to seven days, average of eight wells, read-out: BAW % Control (or Mortality) rating
# How it was run: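 Artificial diet surface-treated with 50 μg/cm^2 test molecule in 90:10 acetone-water, dried, then infested with one to five second instar larvae per well. Held covered and vented at 25° C., 14:10 light-dark for five to seven days; percent mortality recorded per well and averaged over eight wells.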
# [2] = tested on: Green Peach Aphid (Myzus persicae, MYZUPE); assay: Bioassay on Green Peach Aphid (GPA), foliar spray on cabbage seedlings; conditions: 72 h, 200 ppm spray on infested cabbage seedlings, three days, Abbott corrected % control, read-out: GPA % Control (or Mortality) rating
# Procedure: Certain molecules disclosed in this document were tested against GPA using procedures described in the following example. In the reporting of the results, the “GPA & YFM Rating Table” was used (See Table Section).
# Cabbage seedlings grown in 3-inch pots, with 2-3 small (3-5 cm) true leaves, were used as test substrate. The seedlings were infested with 20-50 GPA (wingless adult and nymph stages) one day prior to chemical application. Four pots with individual seedlings were used for each treatment. Test molecules (2 mg) were dissolved in 2 mL of acetone/methanol (1:1) solvent, forming stock solutions of 1000 ppm test molecule. The stock solutions were diluted 5× with 0.025% Tween 20 in water to obtain the solution at 200 ppm test molecule. A hand-held aspirator-type sprayer was used for spraying a solution to both sides of […] leaves until runoff. Reference plants (solvent check) were sprayed with the diluent only containing 20% by volume of acetone/methanol (1:1) solvent. Treated plants were held in a holding room for three days at approximately 25° C. and ambient relative humidity (RH) prior to grading. Evaluation was conducted by counting the number of live aphids per plant under a microscope. Percent control was measured using Abbott's correction formula (W. S. Abbott, “A Method of Computing the Effectiveness of an Insecticide” J. Econ. Entomol. 18 (1925), pp. 265-267) as follows. Corrected % Control=100*(X−Y)/X where X=No. of live aphids on solvent check plants and Y=No. of live aphids on treated plants. The results are indicated in the table entitled “Table ABC: Biological Results” (See Table Section).
# [3] = tested on: Yellow Fever Mosquito (Aedes aegypti, AEDSAE); assay: Bioassay on Yellow Fever Mosquito (YFM) larvae, 96-well plate; conditions: about 1 day-old larvae, room temperature, 3 days, scored on mortality
# How it was run: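 Compound stocks at 4000 ppm in DMSO were diluted with 90:10 water/acetone, and 15 μL aliquots were dispensed into six replicate plates. About 1-day-old larvae in liver-powder water were added per well. Plates were covered and held at room temperature for 3 days before each well was scored for mortality.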
# [4] = tested on: Cabbage Looper (Trichoplusia ni, TRIPNI); assay: Bioassay on Cabbage Looper (CL), 128-well diet tray assay; conditions: 168 h, 50 μg/cm^2 on artificial diet, second instar larvae, 25° C., five to seven days, average of eight wells, read-out: CL % Control (or Mortality) rating
# How it was run: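 Second-instar T. ni larvae (one to five per well) were placed on artificial diet treated with 50 μg/cm^2 compound, applied in 90:10 acetone-water and dried. Trays were held five to seven days at 25 °C under 14:10 light-dark. Percent mortality per well was averaged over eight wells.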
smiles,measurement,setting,value
"CCCNC(=O)c1cc(NC(=O)[C@H]2[C@H](c3cc(Cl)cc(Cl)c3)C2(Cl)Cl)ccc1Cl (relative stereo) [F56, trans-2-Chloro-5-(2,2-dichloro-3-(3,5-dichlorophenyl)cyclopropane-1-carboxamido)-N-propylbenzamide]",mortality at 50 µg/cm2,[1],50 to 100%
same,mortality at 200 ppm,[2],80 to 100%
same,YFM % Control (or Mortality) rating,[3],A (80-100)
same,mortality at 50 µg/cm2,[4],50 to 100%
"CN(CC(F)(F)F)C(=O)c1cc(NC(=O)[C@H]2[C@H](c3cc(Cl)cc(Cl)c3)C2(Cl)Cl)ccc1Cl (relative stereo) [F59, trans-2-Chloro-5-(2,2-dichloro-3-(3,5-dichlorophenyl)cyclopropane-1-carboxamido)-N-methyl-N-(2,2,2-trifluoroethyl)benzamide]",mortality at 50 µg/cm2,[1],50 to 100%
same,mortality at 200 ppm,[2],0 to 80%
same,YFM % Control (or Mortality) rating,[3],A (80-100)
same,mortality at 50 µg/cm2,[4],50 to 100%
"CS(=O)(=O)CCNC(=O)c1cc(NC(=O)[C@H]2[C@H](c3cc(Cl)cc(Cl)c3)C2(Cl)Cl)ccc1Cl (relative stereo) [F75, trans-2-chloro-5-(2,2-dichloro-3-(3,5-dichlorophenyl)cyclopropane-1-carboxamido)-N-(2-(methylsulfonyl)ethyl)benzamide]",mortality at 50 µg/cm2,[1],50 to 100%
same,mortality at 200 ppm,[2],80 to 100%
same,YFM % Control (or Mortality) rating,[3],A (80-100)
same,mortality at 50 µg/cm2,[4],50 to 100%
"O=C(NCC(O)C(F)(F)F)c1cc(NC(=O)[C@H]2[C@H](c3cc(Cl)cc(Cl)c3)C2(Cl)Cl)ccc1Cl (relative stereo) [PF16, trans-2-Chloro-5-(2,2-dichloro-3-(3,5-dichlorophenyl)cyclopropane-1-carboxamido)-N-(3,3,3-trifluoro-2-hydroxypropyl)benzamide]",mortality at 50 µg/cm2,[1],50 to 100%
same,mortality at 200 ppm,[2],80 to 100%
same,YFM % Control (or Mortality) rating,[3],A (80-100)
same,mortality at 50 µg/cm2,[4],50 to 100%
"C[C@H](CSCC(F)(F)F)NC(=O)c1cc(NC(=O)C2C(c3cc(Cl)cc(Cl)c3)C2(Cl)Cl)ccc1Cl (stereo in doubt) [PF3, trans-2-Chloro-5-(2,2-dichloro-3-(3,5-dichlorophenyl)cyclopropane-1-carboxamido)-N—((R)-1-((2,2,2-trifluoroethyl)thio)propan-2-yl)benzamide]",mortality at 50 µg/cm2,[1],50 to 100%
same,mortality at 200 ppm,[2],80 to 100%
same,YFM % Control (or Mortality) rating,[3],B (More than 0-Less than 80)
same,mortality at 50 µg/cm2,[4],50 to 100%
"C[C@H](CS(=O)(=O)CC(F)(F)F)NC(=O)c1cc(NC(=O)C2C(c3cc(Cl)cc(Cl)c3)C2(Cl)Cl)ccc1Cl (stereo in doubt) [PF6, trans-2-Chloro-5-(2,2-dichloro-3-(3,5-dichlorophenyl)cyclopropane-1-carboxamido)-N—((R)-1-((2,2,2-trifluoroethyl)sulfonyl)propan-2-yl)benzamide]",mortality at 50 µg/cm2,[1],50 to 100%
same,mortality at 200 ppm,[2],0 to 80%
same,YFM % Control (or Mortality) rating,[3],A (80-100)
same,mortality at 50 µg/cm2,[4],50 to 100%
"O=C(NOCC1CC1)c1cc(NC(=O)C2C(c3cc(Cl)c(Cl)c(Cl)c3)C2(Cl)Cl)ccc1Cl (stereo not drawn) [F15, trans-N-2-Chloro-N-(cyclopropylmethoxy)-5-(2,2-dichloro-3-(3,4,5-trichlorophenyl)cyclopropane-1-carboxamido)benzamide]",mortality at 50 µg/cm2,[1],50 to 100%
same,mortality at 200 ppm,[2],80 to 100%
same,YFM % Control (or Mortality) rating,[3],A (80-100)
same,mortality at 50 µg/cm2,[4],50 to 100%
"O=C(NOCC1CC1)c1cc(NC(=O)C2C(c3cc(Cl)cc(Cl)c3)C2(Cl)Cl)ccc1Cl (stereo not drawn) [F16, trans-N-2-Chloro-N-(cyclopropylmethoxy)-5-(2,2-dichloro-3-(3,5-dichlorophenyl)cyclopropane-1-carboxamido)benzamide]",mortality at 50 µg/cm2,[1],50 to 100%
same,mortality at 200 ppm,[2],0 to 80%
same,YFM % Control (or Mortality) rating,[3],A (80-100)
same,mortality at 50 µg/cm2,[4],50 to 100%
"O=C(NOCc1ccc(F)cc1)c1cc(NC(=O)C2C(c3cc(Cl)cc(Cl)c3)C2(Cl)Cl)ccc1Cl (stereo not drawn) [F17, trans-N-2-Chloro-5-(2,2-dichloro-3-(3,5-dichlorophenyl)cyclopropane-1-carboxamido)-N-((4-fluorobenzyl)oxy)benzamide]",mortality at 50 µg/cm2,[1],50 to 100%
same,mortality at 200 ppm,[2],0 to 80%
same,YFM % Control (or Mortality) rating,[3],A (80-100)
same,mortality at 50 µg/cm2,[4],50 to 100%
"O=C(NCCc1ccc(F)cc1)c1cc(NC(=O)C2C(c3cc(Cl)cc(Cl)c3)C2(Cl)Cl)ccc1Cl (stereo not drawn) [F19, trans-N-2-Chloro-5-(2,2-dichloro-3-(3,5-dichlorophenyl)cyclopropane-1-carboxamido)-N-(4-fluorophenethyl)benzamide]",mortality at 50 µg/cm2,[1],50 to 100%
same,mortality at 200 ppm,[2],0 to 80%
same,YFM % Control (or Mortality) rating,[3],A (80-100)
same,mortality at 50 µg/cm2,[4],50 to 100%
"O=C(NCCc1ccc(F)cc1)c1cc(NC(=O)C2C(c3cc(Cl)c(Cl)c(Cl)c3)C2(Cl)Cl)ccc1Cl (stereo not drawn) [F20, trans-N-2-Chloro-5-(2,2-dichloro-3-(3,4,5-trichlorophenyl)cyclopropane-1-carboxamido)-N-(4-fluorophenethyl)benzamide]",mortality at 50 µg/cm2,[1],50 to 100%
same,mortality at 200 ppm,[2],0 to 80%
same,YFM % Control (or Mortality) rating,[3],A (80-100)
same,mortality at 50 µg/cm2,[4],50 to 100%
"O=C(NOCC1CC1(F)F)c1cc(NC(=O)C2C(c3cc(Cl)cc(Cl)c3)C2(Cl)Cl)ccc1Cl (stereo not drawn) [F21, trans-N-2-Chloro-5-(2,2-dichloro-3-(3,5-dichlorophenyl)cyclopropane-1-carboxamido)-N-((2,2-difluorocyclopropyl)methoxy)benzamide]",mortality at 50 µg/cm2,[1],50 to 100%
same,mortality at 200 ppm,[2],0 to 80%
same,YFM % Control (or Mortality) rating,[3],B (More than 0-Less than 80)
same,mortality at 50 µg/cm2,[4],50 to 100%
"O=C(NOCC1CC1(F)F)c1cc(NC(=O)C2C(c3ccc(Cl)c(Cl)c3)C2(Cl)Cl)ccc1Cl (stereo not drawn) [F22, trans-N-2-Chloro-5-(2,2-dichloro-3-(3,4-dichlorophenyl)cyclopropane-1-carboxamido)-N-((2,2-difluorocyclopropyl)methoxy)benzamide]",mortality at 50 µg/cm2,[1],50 to 100%
same,mortality at 200 ppm,[2],80 to 100%
same,YFM % Control (or Mortality) rating,[3],B (More than 0-Less than 80)
same,mortality at 50 µg/cm2,[4],50 to 100%
"O=C(NOCC1CC1(F)F)c1cc(NC(=O)C2C(c3cc(Cl)c(Cl)c(Cl)c3)C2(Cl)Cl)ccc1Cl (stereo not drawn) [F23, trans-N-2-Chloro-5-(2,2-dichloro-3-(3,4,5-trichlorophenyl)cyclopropane-1-carboxamido)-N-((2,2-difluorocyclopropyl)methoxy)benzamide]",mortality at 50 µg/cm2,[1],50 to 100%
same,mortality at 200 ppm,[2],80 to 100%
same,YFM % Control (or Mortality) rating,[3],B (More than 0-Less than 80)
same,mortality at 50 µg/cm2,[4],50 to 100%
"CC(C)(C)c1ccc(CNC(=O)c2cc(NC(=O)C3C(c4cc(Cl)cc(Cl)c4)C3(Cl)Cl)ccc2Cl)cc1 (stereo not drawn) [F36, trans-N-(4-(tert-Butylbenzyl)-2-chloro-5-(2,2-dichloro-3-(3,5-dichlorophenyl)cyclopropane-1-carboxamido)benzamide]",mortality at 50 µg/cm2,[1],0%
same,mortality at 200 ppm,[2],0%
same,YFM % Control (or Mortality) rating,[3],B (More than 0-Less than 80)
same,mortality at 50 µg/cm2,[4],0%
